Values after ≈ are worked out from the molar mass of the structure shown. Values belong to the compound of their own block, whether it stands above or below them.
How the values were obtained:
[1] = molecular target: Metabotropic glutamate receptor 5 (Rattus norvegicus, UniProt P31424); test: Negative allosteric modulation of rat mGluR5 receptor expressed in HEK293 cells assessed as intracellular calcium flux after 170 seconds by FLIPR assay; format: functional, cell-based
[2] = Kinetic solubility of the compound in DMSO at pH 7.4; format: physicochemical; conditions: read-out: Kinetic_solubility
Cytochrome P450 2D6 = Cytochrome P450 2D6 (Homo sapiens, UniProt P10635); test: Inhibition of CYP2D6 (unknown origin); format: ADME
[3] = molecular target: Metabotropic glutamate receptor 5 (Rattus norvegicus) (UniProt P31424); test: Displacement of [3H]MPEP from mGluR5 receptor in Sprague-Dawley rat cortical homogenate after 1 hr by liquid scintillation spectrometric analysis
[4] = Intrinsic clearance in human microsomes measured per mg of protein; format: ADME, Microsome
[5] = Intrinsic clearance in rat microsomes measured per mg of protein; format: ADME, Microsome
Cytochrome P450 2C9 = Cytochrome P450 2C9 (Homo sapiens, UniProt P11712); test: Inhibition of CYP2C9 (unknown origin); format: ADME
Cytochrome P450 3A4 = Cytochrome P450 3A4 (Homo sapiens, UniProt P08684); test: Inhibition of CYP3A4 (unknown origin); format: ADME
Cytochrome P450 1A2 = molecular target: T1, Cytochrome P450 1A2 (Homo sapiens, UniProt P05177); test: Inhibition of CYP1A2 (unknown origin); format: ADME
T1 sequence (P05177 whole entry): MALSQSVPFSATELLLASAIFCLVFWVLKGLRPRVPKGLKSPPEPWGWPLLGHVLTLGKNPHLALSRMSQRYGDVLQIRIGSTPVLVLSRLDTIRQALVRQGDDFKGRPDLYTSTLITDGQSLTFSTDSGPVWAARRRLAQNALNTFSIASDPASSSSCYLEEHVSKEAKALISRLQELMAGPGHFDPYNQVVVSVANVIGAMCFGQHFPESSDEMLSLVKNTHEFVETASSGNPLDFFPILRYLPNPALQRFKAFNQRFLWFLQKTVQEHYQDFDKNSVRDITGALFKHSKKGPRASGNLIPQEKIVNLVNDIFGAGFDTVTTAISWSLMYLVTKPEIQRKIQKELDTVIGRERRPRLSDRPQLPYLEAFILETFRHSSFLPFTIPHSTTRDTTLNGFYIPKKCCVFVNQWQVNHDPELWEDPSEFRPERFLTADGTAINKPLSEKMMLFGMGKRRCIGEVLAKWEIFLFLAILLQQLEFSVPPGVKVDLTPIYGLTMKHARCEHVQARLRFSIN

[6] = molecular target: Metabotropic glutamate receptor 5 (Rattus norvegicus) (UniProt P31424); test: Inhibition of rat mGluR5 receptor expressed in HEK293 cells at 30 uM relative to control; format: cell-based
[7] = Kinetic solubility of the compound in DMSO at pH 1; format: physicochemical; conditions: read-out: Kinetic_solubility
Plasma = test: Metabolic stability in rat plasma matrix; format: ADME, cell-free
[8] = molecular target: Metabotropic glutamate receptor 5 (Rattus norvegicus) (UniProt P31424); test: Partial negative allosteric modulation of rat mGluR5 receptor expressed in HEK293 cells assessed as intracellular calcium flux after 170 seconds by FLIPR assay relative to control; format: functional, cell-based

Chain of Metabotropic glutamate receptor 5 (P31424 whole entry): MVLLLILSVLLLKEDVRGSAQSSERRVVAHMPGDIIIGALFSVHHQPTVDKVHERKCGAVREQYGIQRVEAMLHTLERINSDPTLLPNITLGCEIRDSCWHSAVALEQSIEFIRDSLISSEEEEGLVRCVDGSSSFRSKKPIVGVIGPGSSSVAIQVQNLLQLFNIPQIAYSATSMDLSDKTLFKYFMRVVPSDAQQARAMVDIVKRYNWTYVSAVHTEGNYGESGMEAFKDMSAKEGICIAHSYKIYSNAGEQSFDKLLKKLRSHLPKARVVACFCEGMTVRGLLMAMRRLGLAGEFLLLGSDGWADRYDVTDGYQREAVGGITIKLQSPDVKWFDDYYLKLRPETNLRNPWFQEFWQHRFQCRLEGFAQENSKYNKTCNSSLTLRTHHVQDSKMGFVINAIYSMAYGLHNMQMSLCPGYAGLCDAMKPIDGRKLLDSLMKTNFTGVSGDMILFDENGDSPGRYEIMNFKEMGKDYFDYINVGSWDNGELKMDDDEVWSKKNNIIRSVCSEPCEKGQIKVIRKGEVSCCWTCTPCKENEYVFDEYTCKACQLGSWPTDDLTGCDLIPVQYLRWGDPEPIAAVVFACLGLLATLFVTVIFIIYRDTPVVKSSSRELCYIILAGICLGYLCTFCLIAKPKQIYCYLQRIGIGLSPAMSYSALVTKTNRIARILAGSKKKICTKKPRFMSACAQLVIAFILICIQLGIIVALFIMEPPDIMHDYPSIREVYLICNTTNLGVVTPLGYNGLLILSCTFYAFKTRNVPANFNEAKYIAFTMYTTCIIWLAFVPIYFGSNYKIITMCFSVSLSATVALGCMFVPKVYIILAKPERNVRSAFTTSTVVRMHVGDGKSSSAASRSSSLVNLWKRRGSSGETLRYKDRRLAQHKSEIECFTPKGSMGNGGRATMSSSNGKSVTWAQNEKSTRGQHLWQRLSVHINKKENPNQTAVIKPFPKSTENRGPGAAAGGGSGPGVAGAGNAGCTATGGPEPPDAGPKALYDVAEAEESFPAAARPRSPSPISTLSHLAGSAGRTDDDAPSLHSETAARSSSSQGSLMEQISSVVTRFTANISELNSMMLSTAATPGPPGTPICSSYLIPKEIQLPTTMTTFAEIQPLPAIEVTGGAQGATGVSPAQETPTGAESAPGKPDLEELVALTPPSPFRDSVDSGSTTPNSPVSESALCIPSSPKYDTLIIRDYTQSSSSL
Chain of Metabotropic glutamate receptor 5 (Rattus norvegicus) (P31424 21-1203 limits assumed): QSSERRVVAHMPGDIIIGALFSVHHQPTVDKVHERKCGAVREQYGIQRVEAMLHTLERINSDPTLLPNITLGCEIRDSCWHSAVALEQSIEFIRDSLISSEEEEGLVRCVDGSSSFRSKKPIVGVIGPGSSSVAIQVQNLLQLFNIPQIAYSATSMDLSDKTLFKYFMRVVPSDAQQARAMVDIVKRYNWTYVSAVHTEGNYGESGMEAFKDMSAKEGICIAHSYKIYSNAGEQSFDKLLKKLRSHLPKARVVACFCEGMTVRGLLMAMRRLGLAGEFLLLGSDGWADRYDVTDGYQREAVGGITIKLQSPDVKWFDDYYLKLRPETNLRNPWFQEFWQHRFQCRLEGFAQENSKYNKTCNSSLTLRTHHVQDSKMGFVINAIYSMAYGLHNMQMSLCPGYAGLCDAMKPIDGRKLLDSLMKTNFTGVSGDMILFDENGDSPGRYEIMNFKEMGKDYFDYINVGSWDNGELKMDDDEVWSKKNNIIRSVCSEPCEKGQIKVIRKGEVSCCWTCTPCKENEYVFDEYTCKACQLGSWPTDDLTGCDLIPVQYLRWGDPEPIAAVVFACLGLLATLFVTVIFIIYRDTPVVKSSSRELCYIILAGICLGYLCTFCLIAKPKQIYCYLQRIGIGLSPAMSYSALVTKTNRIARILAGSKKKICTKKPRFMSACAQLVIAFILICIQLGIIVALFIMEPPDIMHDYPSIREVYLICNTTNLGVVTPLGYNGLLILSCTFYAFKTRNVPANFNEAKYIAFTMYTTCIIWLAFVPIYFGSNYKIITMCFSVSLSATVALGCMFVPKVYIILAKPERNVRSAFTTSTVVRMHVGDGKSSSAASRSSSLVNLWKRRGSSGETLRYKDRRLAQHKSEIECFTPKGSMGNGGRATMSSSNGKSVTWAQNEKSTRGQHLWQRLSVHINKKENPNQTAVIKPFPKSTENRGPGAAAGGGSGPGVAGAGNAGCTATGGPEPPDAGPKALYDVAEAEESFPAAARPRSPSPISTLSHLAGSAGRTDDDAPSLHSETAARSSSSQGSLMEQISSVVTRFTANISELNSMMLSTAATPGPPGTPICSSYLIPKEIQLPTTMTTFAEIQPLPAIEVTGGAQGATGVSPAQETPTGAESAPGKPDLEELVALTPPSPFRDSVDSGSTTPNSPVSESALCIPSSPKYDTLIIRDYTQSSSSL
Chain of Cytochrome P450 3A4 (P08684 whole entry): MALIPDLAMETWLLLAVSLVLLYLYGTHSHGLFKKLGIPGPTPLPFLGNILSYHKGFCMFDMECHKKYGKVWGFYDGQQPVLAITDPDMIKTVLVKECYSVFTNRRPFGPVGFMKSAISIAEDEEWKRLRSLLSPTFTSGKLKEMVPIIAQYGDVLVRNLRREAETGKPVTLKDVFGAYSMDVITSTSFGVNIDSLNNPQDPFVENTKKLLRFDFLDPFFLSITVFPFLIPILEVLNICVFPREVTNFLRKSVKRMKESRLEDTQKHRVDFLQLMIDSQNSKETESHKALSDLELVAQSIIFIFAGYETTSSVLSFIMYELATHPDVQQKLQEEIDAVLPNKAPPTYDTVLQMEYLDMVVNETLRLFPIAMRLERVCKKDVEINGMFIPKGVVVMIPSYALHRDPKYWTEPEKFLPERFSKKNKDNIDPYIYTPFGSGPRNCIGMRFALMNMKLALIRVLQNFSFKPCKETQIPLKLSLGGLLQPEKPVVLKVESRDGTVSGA
Chain of Cytochrome P450 2C9 (P11712 whole entry): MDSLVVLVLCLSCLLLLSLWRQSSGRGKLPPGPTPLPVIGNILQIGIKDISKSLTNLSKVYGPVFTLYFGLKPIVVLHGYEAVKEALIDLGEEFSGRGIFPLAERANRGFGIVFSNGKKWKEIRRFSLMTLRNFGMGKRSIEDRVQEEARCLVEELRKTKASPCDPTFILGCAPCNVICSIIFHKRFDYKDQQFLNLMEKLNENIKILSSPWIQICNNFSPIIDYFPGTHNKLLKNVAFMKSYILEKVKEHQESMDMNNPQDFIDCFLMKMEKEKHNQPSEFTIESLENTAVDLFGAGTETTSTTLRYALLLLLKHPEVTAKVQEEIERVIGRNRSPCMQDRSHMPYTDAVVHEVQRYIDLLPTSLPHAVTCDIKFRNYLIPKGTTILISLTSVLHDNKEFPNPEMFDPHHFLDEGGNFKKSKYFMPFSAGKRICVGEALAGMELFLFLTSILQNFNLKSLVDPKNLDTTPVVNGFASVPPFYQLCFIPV
Chain of Cytochrome P450 2D6 (P10635 whole entry): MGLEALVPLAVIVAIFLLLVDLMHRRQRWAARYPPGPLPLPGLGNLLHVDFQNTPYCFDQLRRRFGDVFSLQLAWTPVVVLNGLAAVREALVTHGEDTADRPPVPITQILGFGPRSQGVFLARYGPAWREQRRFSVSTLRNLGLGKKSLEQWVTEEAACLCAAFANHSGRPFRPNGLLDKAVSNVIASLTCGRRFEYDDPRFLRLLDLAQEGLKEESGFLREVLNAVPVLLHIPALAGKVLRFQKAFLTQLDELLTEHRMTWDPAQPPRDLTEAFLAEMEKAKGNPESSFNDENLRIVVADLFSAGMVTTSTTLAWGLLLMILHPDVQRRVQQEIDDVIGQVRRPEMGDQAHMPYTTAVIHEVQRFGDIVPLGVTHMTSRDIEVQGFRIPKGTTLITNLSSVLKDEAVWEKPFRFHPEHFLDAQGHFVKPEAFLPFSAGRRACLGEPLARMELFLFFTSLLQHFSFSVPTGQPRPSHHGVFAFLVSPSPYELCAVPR

Structure (SMILES): O=C(Nc1cccc(F)n1)c1cc2n(n1)CCCC2
- IC50 ([1]; read-out: IC50): 4740 nM

Structure (SMILES): N#Cc1ccc(CC(=O)c2nn3c(c2C(F)(F)F)CCCC3)nc1
- IC50 ([1]; read-out: IC50): 7180 nM

Structure (SMILES): N#Cc1ccc(NC(=O)c2cc3n(n2)CCCC3)nc1
- IC50 ([1]; read-out: IC50): 90 nM
- INH (Cytochrome P450 2D6): > 10 µM
- INH [3]: 151 nM
- microsomal CLint [4]: 83 µL/min/mg
- INH (Cytochrome P450 2C9): > 10 µM
- INH (Cytochrome P450 3A4): > 10 µM
- INH (Cytochrome P450 1A2): > 10 µM
- inhibition [6]: > 99%
- Stability (Plasma): Unstable

Structure (SMILES): N#Cc1ccc(CC(=O)c2cc3n(n2)CCCC3)nc1
- IC50 ([1]; read-out: IC50): 53 nM
- solubility kinetic [2]: 30 µg/mL (≈ 113 µM)
- INH (Cytochrome P450 2D6): > 10 µM
- INH [3]: 139 nM
- microsomal CLint [4]: 46 µL/min/mg
- microsomal CLint [5]: 108 µL/min/mg
- INH (Cytochrome P450 2C9): > 10 µM
- INH (Cytochrome P450 3A4): > 10 µM
- INH (Cytochrome P450 1A2): > 10 µM
- inhibition [6]: > 99%
- solubility kinetic [7]: 80 µg/mL (≈ 300 µM)

Structure (SMILES): Nc1cccc(COc2cc3n(n2)CCCC3)n1
- IC50 ([1]; hek293): Not Active

Structure (SMILES): O=C(Nc1ccc(F)cn1)c1cc2n(n1)CCCC2
- IC50 ([1]; read-out: IC50): 60 nM
- solubility kinetic [2]: 40 µg/mL (≈ 154 µM)
- INH (Cytochrome P450 2D6): > 10 µM
- INH [3]: 166 nM
- microsomal CLint [4]: 31 µL/min/mg
- INH (Cytochrome P450 2C9): > 10 µM
- INH (Cytochrome P450 3A4): > 10 µM
- INH (Cytochrome P450 1A2): > 10 µM
- inhibition [6]: > 99%
- solubility kinetic [7]: 100 µg/mL (≈ 384 µM)
- Stability (Plasma): Unstable

Structure (SMILES): O=C(Nc1ccccn1)c1cc2n(n1)CCCC2
- IC50 ([1]; read-out: IC50): 364 nM

Structure (SMILES): CN(C(=O)c1cc2n(n1)CCCC2)c1ccccn1
- IC50 ([1]; hek293): Not Active

Structure (SMILES): O=C(Nc1cccc(C(F)(F)F)n1)c1cc2n(n1)CCCC2
- IC50 ([1]; hek293): Not Active

Structure (SMILES): Cc1cccc(NC(=O)c2cc3n(n2)CCCC3)n1
- IC50 ([1]; hek293): Not Active

Structure (SMILES): c1ccc(COc2cc3n(n2)CCCC3)cc1
- IC50 ([1]; hek293): Not Active

Structure (SMILES): N#Cc1ccc(CC(=O)c2nn3c(c2Cl)CCCC3)nc1
- IC50 ([1]; read-out: IC50): 108 nM
- INH (Cytochrome P450 2D6): > 10 µM
- microsomal CLint [4]: 79 µL/min/mg
- microsomal CLint [5]: 649 µL/min/mg
- INH (Cytochrome P450 2C9): > 10 µM
- INH (Cytochrome P450 3A4): > 10 µM
- INH (Cytochrome P450 1A2): > 10 µM
- inhibition [6]: > 99%

Second part, the compound after the results:

- IC50 ([1]; read-out: IC50): > 10000 nM
Structure (SMILES): Nc1cccnc1NC(=O)c1cc2n(n1)CCCC2

- IC50 ([1]; hek293): Not Active
Structure (SMILES): Cc1ccnc(NC(=O)c2cc3n(n2)CCCC3)c1

- IC50 ([1]; read-out: IC50): 1290 nM
- solubility kinetic [2]: 180 µg/mL (≈ 903 µM)
- INH (Cytochrome P450 2D6): > 10 µM
- INH [3]: 1180 nM
- microsomal CLint [4]: 97 µL/min/mg
- microsomal CLint [5]: 118 µL/min/mg
- INH (Cytochrome P450 2C9): > 10 µM
- INH (Cytochrome P450 3A4): > 10 µM
- INH (Cytochrome P450 1A2): > 10 µM
- inhibition [6]: > 99%
- solubility kinetic [7]: 170 µg/mL (≈ 853 µM)
Structure (SMILES): c1ccc(-c2cc3n(n2)CCCC3)nc1

- IC50 ([1]; read-out: IC50): > 10000 nM
Structure (SMILES): Clc1ccnc(COc2cc3n(n2)CCCC3)c1

- IC50 ([1]; hek293): Not Active
Structure (SMILES): Cc1cccnc1NC(=O)c1cc2n(n1)CCCC2

- IC50 ([1]; read-out: IC50): 3990 nM
Structure (SMILES): FC(F)(F)c1cccc(-c2cc3n(n2)CCCC3)c1

- IC50 ([1]; read-out: IC50): 1570 nM
Structure (SMILES): Fc1cccc(-c2cc3n(n2)CCCC3)c1

- IC50 [8]: 332 nM
Structure (SMILES): Clc1cccc(COc2cc3n(n2)CCCC3)c1

- IC50 ([1]; read-out: IC50): 675 nM
Structure (SMILES): Clc1ccnc(-c2cc3n(n2)CCCC3)c1

- IC50 ([1]; hek293): Not Active
Structure (SMILES): N#Cc1ccnc(NC(=O)c2cc3n(n2)CCCC3)c1

- IC50 ([1]; read-out: IC50): 2650 nM
Structure (SMILES): Clc1ccccc1-c1cc2n(n1)CCCC2

- IC50 ([1]; read-out: IC50): 4230 nM
Structure (SMILES): Clc1ccc(-c2cc3n(n2)CCCC3)cc1

- IC50 ([1]; read-out: IC50): 4500 nM
Structure (SMILES): COc1cccc(-c2cc3n(n2)CCCC3)c1

- IC50 ([1]; read-out: IC50): 1890 nM
Structure (SMILES): c1ccc(-c2cc3n(n2)CCCC3)cc1

- IC50 ([1]; read-out: IC50): 1240 nM
Structure (SMILES): Cc1cccc(-c2cc3n(n2)CCCC3)n1

From ChEMBL document CHEMBL2406991, “A novel series of metabotropic glutamate receptor 5 negative allosteric modulators based on a 4,5,6,7-tetrahydropyrazolo[1,5-a]pyridine core” (Bioorg Med Chem Lett, 2013)
